Experimental data from US20240366770A1, “DEGRADATION OF BRUTON'S TYROSINE KINASE (BTK) BY CONJUGATION OF BTK INHIBITORS WITH E3 LIGASE LIGAND AND METHODS OF USE” (BeiGene Switzerland GmbH, priority 2021, published 2024).
Like-named read-outs stand apart in the source and are kept apart here.

How the values were obtained:
BTK = target: T1, BTK (Homo sapiens, UniProt Q06187); assay: BTK degradation in TMD-8 cells (HTRF assay); assay type: cell-based; details: 6 h treatment, IC50 (DC50) of BTK degradation
T1 construct: High control=Cell group with added DMSO and without compound, indicating microplate readings without BTK degradation; endogenous in cells; host or cells: TMD-8
Method in brief: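 TMD-8 cells were exposed for 6 h to 8 compound doses (6-fold serial dilution, 0.2% DMSO). Lysed cells were incubated overnight at room temperature with HTRF antibodies and read at 665/620 nm. DC50 came from four-parameter fitting of % inhibition versus concentration.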

HEK-293 cells = assay: HEK-293 cytotoxicity detection (CellTiter-Glo); assay type: cell-based; details: HEK-293 cells, 72 h incubation, CellTiter-Glo luminescence, IC50 of cell proliferation inhibition, read-out: HEK293
Method in brief: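 HEK-293 cells exposed 72 h to an 8-point, 4-fold dilution series (top 500× stock 5 mM in DMSO; 0.2% DMSO final). Viability by CellTiter-Glo luminescence after 10 min at room temperature; IC50 from four-parameter Hill fit of percent inhibition.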

T1 sequence (Q06187 whole entry): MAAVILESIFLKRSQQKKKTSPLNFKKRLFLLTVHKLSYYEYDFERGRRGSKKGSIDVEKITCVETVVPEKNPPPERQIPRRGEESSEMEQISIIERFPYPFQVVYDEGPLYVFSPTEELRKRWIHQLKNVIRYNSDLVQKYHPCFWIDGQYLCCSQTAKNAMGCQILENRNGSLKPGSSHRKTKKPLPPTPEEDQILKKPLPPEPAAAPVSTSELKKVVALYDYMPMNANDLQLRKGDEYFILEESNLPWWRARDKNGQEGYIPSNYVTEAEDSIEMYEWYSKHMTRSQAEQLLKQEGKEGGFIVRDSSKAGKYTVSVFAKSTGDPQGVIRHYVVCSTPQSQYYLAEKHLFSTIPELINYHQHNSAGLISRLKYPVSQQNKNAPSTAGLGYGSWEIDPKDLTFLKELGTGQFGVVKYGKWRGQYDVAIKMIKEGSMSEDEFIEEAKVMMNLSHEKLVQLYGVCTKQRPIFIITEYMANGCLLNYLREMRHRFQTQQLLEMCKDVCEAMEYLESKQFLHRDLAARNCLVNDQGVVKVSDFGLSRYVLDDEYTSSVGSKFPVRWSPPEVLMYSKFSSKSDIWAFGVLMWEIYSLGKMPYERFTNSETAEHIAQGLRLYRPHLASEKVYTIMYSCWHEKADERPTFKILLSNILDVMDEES

| SMILES | DC50 (BTK) | IC50 (HEK-293 cells; Homo sapiens) | IC50 (HEK-293 cells) |
| --- | --- | --- | --- |
| Cc1cc(-c2ncnc3[nH]c4cc(N5CCN(CC6CCN(c7ccc(N8CCC(=O)NC8=O)cc7)CC6)CC5)ccc4c23)c(F)cc1[C@@H](C)NC(=O)c1nc(C2(C)CC2)no1 [Example 89, (R)—N-(1-(4-(7-(4-((1-(4-(2,4-dioxotetrahydropyrimidin-1(2H)-yl)phenyl)piperidin-4-yl)methyl)piperazin-1-yl)-9H-pyrimido[4,5-b]indol-4-yl)-5-fluoro-2-methylphenyl)ethyl)-3-(1-methylcyclopropyl)-1,2,4-oxadiazole-5-carboxamide] | 0.00055 µM | > 10 µM |  |
| Cc1cc(-c2ncnc3[nH]c4cc(N5CCN(C6CC(c7ccc([C@@H]8CCC(=O)NC8=O)cc7)C6)CC5)ccc4c23)c(F)cc1[C@@H](C)NC(=O)c1nc(C2(C)CC2)no1 (stereo partly drawn) [Example 90, N—((R)-1-(4-(7-(4-(3-(4-((S)-2,6-dioxopiperidin-3-yl)phenyl)cyclobutyl)piperazin-1-yl)-9H-pyrimido[4,5-b]indol-4-yl)-5-fluoro-2-methylphenyl)ethyl)-3-(1-methylcyclopropyl)-1,2,4-oxadiazole-5-carboxamide] | 0.00086 µM | > 10 µM |  |
| COc1cc2c(cc1N1CCN(CCc3ccc(C4(C)CCC(=O)NC4=O)cc3)CC1)[nH]c1ncnc(-c3ccc([C@@H](C)NC(=O)c4nc(C(C)(C)C)no4)c(C)c3)c12 (stereo partly drawn) [Example 92, 3-(tert-butyl)-N-((1R)-1-(4-(6-methoxy-7-(4-(4-(3-methyl-2,6-dioxopiperidin-3-yl)phenethyl)piperazin-1-yl)-9H-pyrimido[4,5-b]indol-4-yl)-2-methylphenyl)ethyl)-1,2,4-oxadiazole-5-carboxamide] | 0.00308 µM | > 10 µM |  |
| COc1cc2c(cc1N1CCN(CC3CCN(c4ccc(N5CCC(=O)NC5=O)cc4)CC3)CC1)[nH]c1ncnc(-c3cc(C)c([C@@H](C)NC(=O)c4nc(C5(C)CC5)no4)cc3F)c12 [Example 93, (R)—N-(1-(4-(7-(4-((1-(4-(2,4-dioxotetrahydropyrimidin-1(2H)-yl)phenyl)piperidin-4-yl)methyl)piperazin-1-yl)-6-methoxy-9H-pyrimido[4,5-b]indol-4-yl)-5-fluoro-2-methylphenyl)ethyl)-3-(1-methylcyclopropyl)-1,2,4-oxadiazole-5-carboxamide] | 0.00251 µM | > 10 µM |  |
| COc1cc2c(cc1N1CCN(C3CC(c4ccc(N[C@H]5CCC(=O)NC5=O)cc4)C3)CC1)[nH]c1ncnc(-c3cc(C)c([C@@H](C)NC(=O)c4nc(C5(C)CC5)no4)cc3F)c12 (stereo partly drawn) [Example 94, N—((R)-1-(4-(7-(4-((1S,3s)-3-(4-(((R)-2,6-dioxopiperidin-3-yl)amino)phenyl)cyclobutyl)piperazin-1-yl)-6-methoxy-9H-pyrimido[4,5-b]indol-4-yl)-5-fluoro-2-methylphenyl)ethyl)-3-(1-methylcyclopropyl)-1,2,4-oxadiazole-5-carboxamide] | 0.000768 µM |  | 0.42 µM |
| COc1cc2c(cc1N1CCN([C@H]3C[C@@H](c4ccc(N[C@H]5CCC(=O)NC5=O)cc4)C3)CC1)[nH]c1ncnc(-c3cc(C)c([C@@H](C)NC(=O)c4nc(C5(C)CC5)no4)cc3F)c12 [Example 95, N—((R)-1-(4-(7-(4-((1R,3s)-3-(4-(((S)-2,6-dioxopiperidin-3-yl)amino)phenyl)cyclobutyl)piperazin-1-yl)-6-methoxy-9H-pyrimido[4,5-b]indol-4-yl)-5-fluoro-2-methylphenyl)ethyl)-3-(1-methylcyclopropyl)-1,2,4-oxadiazole-5-carboxamide] | 0.00049 µM | > 10 µM |  |
| Cc1cc(-c2ncnc3[nH]c4cc(N5CCN(C6CC(c7ccc([C@H]8CCC(=O)NC8=O)cc7)C6)CC5)ccc4c23)c(F)cc1[C@@H](C)NC(=O)c1nc(C2(C)CC2)no1 (stereo partly drawn) [Example 96, N—((R)-1-(4-(7-(4-(3-(4-((R)-2,6-dioxopiperidin-3-yl)phenyl)cyclobutyl)piperazin-1-yl)-9H-pyrimido[4,5-b]indol-4-yl)-5-fluoro-2-methylphenyl)ethyl)-3-(1-methylcyclopropyl)-1,2,4-oxadiazole-5-carboxamide] | 0.00298 µM | > 10 µM |  |
| Cc1cc(-c2ncnc3[nH]c4cc(N5CCC6(CCN(CC7CCN(c8ccc(N9CCC(=O)NC9=O)cc8)CC7)C6)CC5)ccc4c23)ccc1[C@@H](C)NC(=O)c1nc(C(C)(C)C)no1 [Example 100, (R)-3-(tert-butyl)-N-(1-(4-(7-(2-((1-(4-(2,4-dioxotetrahydropyrimidin-1(2H)-yl)phenyl)piperidin-4-yl)methyl)-2,8-diazaspiro[4.5]decan-8-yl)-9H-pyrimido[4,5-b]indol-4-yl)-2-methylphenyl)ethyl)-1,2,4-oxadiazole-5-carboxamide] | 0.00102 µM | 3.42 µM |  |
| Cc1cc(-c2ncnc3[nH]c4cc(N5CCC6(CC5)CCN(C5CC(c7ccc([C@H]8CCC(=O)NC8=O)cc7)C5)C6)ccc4c23)ccc1[C@@H](C)NC(=O)c1nc(C(C)(C)C)no1 (stereo partly drawn) [Example 102, 3-(tert-butyl)-N—((R)-1-(4-(7-(2-(3-(4-((R)-2,6-dioxopiperidin-3-yl)phenyl)cyclobutyl)-2,8-diazaspiro[4.5]decan-8-yl)-9H-pyrimido[4,5-b]indol-4-yl)-2-methylphenyl)ethyl)-1,2,4-oxadiazole-5-carboxamide] | 0.00488 µM | 1.02 µM |  |
| Cc1cc(-c2ncnc3[nH]c4cc(N5CCC6(CC5)CCN(C5CC(c7ccc(NC8CCC(=O)NC8=O)cc7)C5)C6)ccc4c23)ccc1[C@@H](C)NC(=O)c1nc(C(C)(C)C)no1 (stereo partly drawn) [Example 103, 3-(tert-butyl)-N-((1R)-1-(4-(7-(2-(3-(4-((2,6-dioxopiperidin-3-yl)amino)phenyl)cyclobutyl)-2,8-diazaspiro[4.5]decan-8-yl)-9H-pyrimido[4,5-b]indol-4-yl)-2-methylphenyl)ethyl)-1,2,4-oxadiazole-5-carboxamide] | 0.00305 µM | 1.06 µM |  |

Continued, in another order:

| DC50 (BTK) | SMILES | IC50 (HEK-293 cells; Homo sapiens) | IC50 (HEK-293 cells) |
| --- | --- | --- | --- |
| > 2 µM | Cc1c([C@@H](C)NC(=O)c2noc(C(C)(C)C)n2)ccc(-c2ncnc3[nH]c4cc(N5CCN(Cc6ccc7c(c6)N(C6CCC(=O)NC6=O)C(=O)C7(C)C)CC5)ccc4c23)c1F (stereo partly drawn) [Example 85, 5-(tert-butyl)-N-((1R)-1-(4-(7-(4-((1-(2,6-dioxopiperidin-3-yl)-3,3-dimethyl-2-oxoindolin-6-yl)methyl)piperazin-1-yl)-9H-pyrimido[4,5-b]indol-4-yl)-3-fluoro-2-methylphenyl)ethyl)-1,2,4-oxadiazole-3-carboxamide] | > 10 µM |  |
| > 2 µM | Cc1c([C@@H](C)NC(=O)c2noc(C(C)(C)C)n2)ccc(-c2ncnc3[nH]c4cc(N5CCN(Cc6ccc7c(c6)C(C)(C)C(=O)N7C6CCC(=O)NC6=O)CC5)ccc4c23)c1F (stereo partly drawn) [Example 86, 5-(tert-butyl)-N-((1R)-1-(4-(7-(4-((1-(2,6-dioxopiperidin-3-yl)-3,3-dimethyl-2-oxoindolin-5-yl)methyl)piperazin-1-yl)-9H-pyrimido[4,5-b]indol-4-yl)-3-fluoro-2-methylphenyl)ethyl)-1,2,4-oxadiazole-3-carboxamide] | > 10 µM |  |
| > 2 µM | Cc1c([C@@H](C)NC(=O)c2noc(C(C)(C)C)n2)ccc(-c2ncnc3[nH]c4cc(N5CCN(C6CCN(Cc7ccc8c(c7)n(C7CCC(=O)NC7=O)c(=O)n8C)CC6)CC5)ccc4c23)c1F (stereo partly drawn) [Example 87, 5-(tert-butyl)-N-((1R)-1-(4-(7-(4-(1-((3-(2,6-dioxopiperidin-3-yl)-1-methyl-2-oxo-2,3-dihydro-1H-benzo[d]imidazol-5-yl)methyl)piperidin-4-yl)piperazin-1-yl)-9H-pyrimido[4,5-b]indol-4-yl)-3-fluoro-2-methylphenyl)ethyl)-1,2,4-oxadiazole-3-carboxamide] | > 10 µM |  |
| > 2 µM | Cc1c([C@@H](C)NC(=O)c2noc(C(C)(C)C)n2)ccc(-c2ncnc3[nH]c4cc(N5CCN(Cc6ccc(SC7CCC(=O)NC7=O)cc6)CC5)ccc4c23)c1F (stereo partly drawn) [Example 88, 5-(tert-butyl)-N-((1R)-1-(4-(7-(4-(4-((2,6-dioxopiperidin-3-yl)thio)benzyl)piperazin-1-yl)-9H-pyrimido[4,5-b]indol-4-yl)-3-fluoro-2-methylphenyl)ethyl)-1,2,4-oxadiazole-3-carboxamide] | > 10 µM |  |
| > 2 µM | Cc1cc(-c2ncnc3[nH]c4cc(N5CCN(Cc6ccc7c(c6)N(C6CCC(=O)NC6=O)C(=O)C76CC6)CC5)ccc4c23)c(F)cc1[C@@H](C)NC(=O)c1noc(C(C)(C)C)n1 (stereo partly drawn) [Example 91, 5-(tert-butyl)-N-((1R)-1-(4-(7-(4-((1′-(2,6-dioxopiperidin-3-yl)-2′-oxospiro[cyclopropane-1,3′-indolin]-6′-yl)methyl)piperazin-1-yl)-9H-pyrimido[4,5-b]indol-4-yl)-5-fluoro-2-methylphenyl)ethyl)-1,2,4-oxadiazole-3-carboxamide] | > 10 µM |  |
| 0.00197 µM | Cc1c([C@@H](C)NC(=O)c2noc(C(C)(C)C)n2)ccc(-c2ncnc3[nH]c4cc(N5CCN(CC6CCN(Cc7ccc8c(c7)C(C)(C)C(=O)N8C7CCC(=O)NC7=O)CC6)CC5)ccc4c23)c1F (stereo partly drawn) [Example 98, 5-(tert-butyl)-N-((1R)-1-(4-(7-(4-((1-((1-(2,6-dioxopiperidin-3-yl)-3,3-dimethyl-2-oxoindolin-5-yl)methyl)piperidin-4-yl)methyl)piperazin-1-yl)-9H-pyrimido[4,5-b]indol-4-yl)-3-fluoro-2-methylphenyl)ethyl)-1,2,4-oxadiazole-3-carboxamide] | 7.29 µM |  |
